{"source": "patent US12123010B2", "about": "“Plants having increased tolerance to herbicides” (BASF SE, priority 2017, dated 2024)", "key": {"[1]": {"system": "Variant PPO Enzyme L397Q (Amaranthus PPO2)", "type": "biochemical", "conditions": "variant L397Q vs wild type"}, "[2]": {"system": "Transgenic T2 Arabidopsis plants and ARBTH WT MC24 non-transgenic", "test": "Greenhouse post spray test, injury 14 DAT (Tables ii, iii);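 also: value is percent injury to the sprayed plants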", "type": "in vivo, Arabidopsis thaliana"}, "[3]": {"system": "Variant PPO Enzyme F420M (Amaranthus PPO2)", "test": "biochemical", "type": "biochemical", "conditions": "variant F420M vs wild type"}, "[4]": {"system": "Variant PPO Enzyme L397Q, F420V (Amaranthus PPO2)", "type": "biochemical", "conditions": "variant L397Q, F420V vs wild type"}, "[5]": {"target": "Wild Type PPO Enzyme (Amaranthus PPO2, SEQ ID NO: 1) (Amaranthus tuberculatus, UniProt Q0NZW9)", "sequence (Q0NZW9 1-534)": "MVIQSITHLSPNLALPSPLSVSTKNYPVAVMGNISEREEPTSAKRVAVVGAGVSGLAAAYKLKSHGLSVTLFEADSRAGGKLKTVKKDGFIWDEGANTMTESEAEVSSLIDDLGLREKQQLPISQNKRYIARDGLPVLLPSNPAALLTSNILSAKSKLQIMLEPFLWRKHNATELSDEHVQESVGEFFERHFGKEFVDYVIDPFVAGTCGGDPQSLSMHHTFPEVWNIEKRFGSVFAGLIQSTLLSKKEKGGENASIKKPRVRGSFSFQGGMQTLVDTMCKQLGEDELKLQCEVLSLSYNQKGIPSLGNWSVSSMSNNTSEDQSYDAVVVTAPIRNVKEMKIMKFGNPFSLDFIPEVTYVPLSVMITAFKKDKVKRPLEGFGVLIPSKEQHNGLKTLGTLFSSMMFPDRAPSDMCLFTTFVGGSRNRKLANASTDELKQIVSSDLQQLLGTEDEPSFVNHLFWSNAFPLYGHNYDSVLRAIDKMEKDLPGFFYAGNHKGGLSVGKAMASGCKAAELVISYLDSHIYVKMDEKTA", "test": "PPO enzyme assay (recombinant), wild type", "type": "biochemical"}, "[6]": {"system": "Transgenic T2 or T3 Soybean plants harbouring PPO inhibitor tolerance trait and Jake non transgenic", "test": "Soybean greenhouse post spray, injury score 7 DAT", "conditions": "in vivo", "procedure": "Soybean cv Jake is transformed as previously described by Siminszky et al., Phytochem Rev. 5:445-458 (2006). After regeneration, transformants are transplanted to soil in small pots, placed in growth chambers (16 hr day/8 hr night; 25° C. day/23° C. night; 65% relative humidity; 130-150 microE m-2 s-1) and subsequently tested for the presence of the T-DNA via Taqman analysis. After a few weeks, healthy, transgenic positive, single copy events are transplanted to larger pots and allowed to grow in the growth chamber. An optimal shoot for cutting is about 3-4 inches tall, with at least two nodes present. Each cutting is taken from the original transformant (mother plant) and dipped into rooting hormone powder (indole-3-butyric acid, IBA). The cutting is then placed in oasis wedges inside a bio-dome. The mother plant is taken to maturity in the greenhouse and harvested for seed. Wild type cuttings are also taken simultaneously to serve as negative controls. The cuttings are kept in the bio-dome for 5-7 days and then transplanted to 3 inch pots and then acclimated in the growth chamber for two more days. Subsequently, the cuttings are transferred to the greenhouse, acclimated for approximately 4 days prior to spray. […] Herbicide injury evaluations are taken at 2, 7, 14 and 21 days after treatment. […]"}, "[7]": {"system": "Transgenic T2 Arabidopsis plants harboring PPO inhibitor tolerance trait", "test": "Lab based germination assay in 48-well plates (Table i)", "type": "in vivo, Arabidopsis thaliana", "conditions": "in comparison to wild type plants"}, "[8]": {"system": "Variant PPO Enzyme F420V (Amaranthus PPO2)", "type": "biochemical", "conditions": "variant F420V vs wild type"}, "[9]": {"system": "Variant PPO Enzyme R128A, F420V (Amaranthus PPO2)", "test": "biochemical", "type": "biochemical", "conditions": "variant R128A, F420V vs wild type"}, "[10]": {"system": "Variant PPO Enzyme R128A, F420M (Amaranthus PPO2)", "type": "biochemical", "conditions": "variant R128A, F420M vs wild type"}, "[11]": {"system": "Variant PPO Enzyme L397Q, F420M (Amaranthus PPO2)", "type": "biochemical", "conditions": "variant L397Q, F420M vs wild type"}}, "note": "Values joined by “and” are separate entries in the source; they are usually repeats but may differ in a detail not shown here. Identical values can stand only once."}
{"smiles": "CCOC(=O)COc1ncccc1Oc1cc(-n2c(=O)cc(C(F)(F)F)n(C)c2=O)c(F)cc1Cl", "note": "[Uracilpyridine 1, ethyl 2-[[3-[2-chloro-4-fluoro-5-[3-methyl-2,6-dioxo-4-(trifluoromethyl)pyrimiclin-1-yl]phenoxy]-2-pyridyl]oxy]acetate]", "values": [{"measurement": "Tolerance Factor (R/S)", "setting": "[1]", "value": 13}, {"measurement": "injury (%)", "setting": "[2]; Table ii, ALOMY_PPO2_R137L_F438V event F, 50 g ai/ha", "value": 20, "unit": "%"}, {"measurement": "injury (%)", "setting": "[2]; Table ii, ALOMY_PPO2_R137L_F438V event F, 100 g ai/ha", "value": 33, "unit": "%"}, {"measurement": "injury (%)", "setting": "[2]; Table ii, ALOMY_PPO2_R137L_F438V event F, 200 g ai/ha", "value": 65, "unit": "%"}, {"measurement": "injury (%)", "setting": "[2]; Table ii, ALOMY_PPO2_R137L_F438V event G, 50 g ai/ha", "value": 5, "unit": "%"}, {"measurement": "injury (%)", "setting": "[2]; Table ii, ALOMY_PPO2_R137L_F438V event G, 100 g ai/ha", "value": 75, "unit": "%"}, {"measurement": "injury (%)", "setting": "[2]; Table ii, ALOMY_PPO2_R137L_F438V event G, 200 g ai/ha", "value": 28, "unit": "%"}, {"measurement": "injury (%)", "setting": "[2]; Table ii, ALOMY_PPO2_TP_AMATU_PPO2_R128M_F420I event R, 50 g ai/ha", "value": 60, "unit": "%"}, {"measurement": "injury (%)", "setting": "[2]; Table ii, ALOMY_PPO2_TP_AMATU_PPO2_R128M_F420I event R, 100 g ai/ha", "value": 92, "unit": "%"}, {"measurement": "injury (%)", "setting": "[2]; Table ii, ALOMY_PPO2_TP_AMATU_PPO2_R128M_F420I event R, 200 g ai/ha", "value": 84, "unit": "%"}, {"measurement": "injury (%)", "setting": "[2]; Table ii, AMATU_PPO2_R128A_F420M event Q, 50 g ai/ha", "value": 55, "unit": "%"}, {"measurement": "injury (%)", "setting": "[2]; Table ii, AMATU_PPO2_R128A_F420M event Q, 100 g ai/ha", "value": 60, "unit": "%"}, {"measurement": "injury (%)", "setting": "[2]; Table ii, AMATU_PPO2_R128A_F420M event Q, 200 g ai/ha", "value": 75, "unit": "%"}, {"measurement": "injury (%)", "setting": "[2]; Table ii, AMATU_PPO2_R128M_F420I event K, 50 g ai/ha", "value": 60, "unit": "%"}, {"measurement": "injury (%)", "setting": "[2]; Table ii, AMATU_PPO2_R128M_F420I event K, 100 g ai/ha", "value": 73, "unit": "%"}, {"measurement": "injury (%)", "setting": "[2]; Table ii, AMATU_PPO2_R128M_F420I event K, 200 g ai/ha", "value": 75, "unit": "%"}, {"measurement": "injury (%)", "setting": "[2]; Table ii, AMATU_PPO2_TP_hemG event R, 50 g ai/ha", "value": 60, "unit": "%"}, {"measurement": "injury (%)", "setting": "[2]; Table ii, AMATU_PPO2_TP_hemG event R, 100 g ai/ha", "value": 63, "unit": "%"}, {"measurement": "injury (%)", "setting": "[2]; Table ii, AMATU_PPO2_TP_hemG event R, 200 g ai/ha", "value": 53, "unit": "%"}, {"measurement": "injury (%)", "setting": "[2]; Table ii, ARBTH WT MC24 non-transgenic, 50 g ai/ha + 1% MSO", "value": 100, "unit": "%"}, {"measurement": "injury (%)", "setting": "[2]; Table ii, ARBTH WT MC24 non-transgenic, 100 g ai/ha + 1% MSO", "value": 100, "unit": "%"}, {"measurement": "injury (%)", "setting": "[2]; Table ii, ARBTH WT MC24 non-transgenic, 200 g ai/ha + 1% MSO", "value": 100, "unit": "%"}, {"measurement": "injury (%)", "setting": "[2]; Table iii, ALOMY_PPO2_R137L_F438M (unnamed lines), 50 g ai/ha", "value": 0, "unit": "%"}, {"measurement": "injury (%)", "setting": "[2]; Table iii, AMATU_PPO2_L397Q_F420V (unnamed lines), 50 g ai/ha", "value": "40% and 75%"}, {"measurement": "injury (%)", "setting": "[2]; Table iii, AMATU_PPO2_L397Q_F420V (unnamed lines), 100 g ai/ha", "value": "85% and 65%"}, {"measurement": "injury (%)", "setting": "[2]; Table iii, AMATU_PPO2_R128A_F420I (unnamed lines), 50 g ai/ha", "value": "60% and 70% and 75%"}, {"measurement": "injury (%)", "setting": "[2]; Table iii, AMATU_PPO2_R128A_F420I (unnamed lines), 100 g ai/ha", "value": "95% and 65% and 80% and 60%"}, {"measurement": "injury (%)", "setting": "[2]; Table iii, AMATU_PPO2_R128A_F420L (unnamed lines), 100 g ai/ha", "value": "60% and 90% and 95% and 80%"}, {"measurement": "injury (%)", "setting": "[2]; Table iii, AMATU_PPO2_R128A_F420V (unnamed lines), 50 g ai/ha", "value": "95% and 90% and 55% and 65%"}, {"measurement": "injury (%)", "setting": "[2]; Table iii, AMATU_PPO2_R128A_F420V (unnamed lines), 100 g ai/ha", "value": "80% and 95% and 98%"}, {"measurement": "injury (%)", "setting": "[2]; Table iii, ARBTH WT MC 24 (non-transgenic), 50 g ai/ha + 1% MSO", "value": 100, "unit": "%"}, {"measurement": "injury (%)", "setting": "[2]; Table iii, ARBTH WT MC 24 (non-transgenic), 100 g ai/ha + 1% MSO", "value": 100, "unit": "%"}, {"measurement": "Tolerance Factor (R/S)", "setting": "[3]", "value": "215 and 265"}, {"measurement": "Tolerance Factor (R/S)", "setting": "[4]", "value": 12739}, {"measurement": "IC50", "setting": "[5]", "value": 0.177, "unit": "nM"}, {"measurement": "injury (0-9)", "setting": "[6]", "value": "3 and 2 and 4 and 0 (No Injury)"}, {"measurement": "Tolerance Factor", "setting": "[7]; construct ARBTH_PPO1_S305L_Y426M (Arabidopsis thaliana)", "value": 250}, {"measurement": "Tolerance Factor", "setting": "[7]; construct ARBTH_PPO1_WT (Arabidopsis thaliana)", "value": 50}, {"measurement": "Tolerance Factor (R/S)", "setting": "[8]", "value": 374}, {"measurement": "Tolerance Factor (R/S)", "setting": "[9]", "value": "915 and 1579"}, {"measurement": "Tolerance Factor (R/S)", "setting": "[10]", "value": 347}, {"measurement": "Tolerance Factor (R/S)", "setting": "[11]", "value": 2418}]}
